The record followed here is patent US20220387604A1, “SELECTIVE DUAL HISTONE DEACETYLASE 6/8 (HDAC6/8) DEGRADERS AND METHODS OF USE THEREOF” (DANA-FARBER CANCER INSTITUTE, INC., priority 2019, published 2022).

What is called IC50 is the concentration that inhibits the measured activity by half.

In one assay the target is T1, CRBN (Homo sapiens, UniProt Q96SW2).
T1 construct: endogenous in cells; host or cells: Flip-In 293 cells stably expressing BRD4BD2-eGFP-P2A-mCherry
The experiment in a line: Cellular CRBN engagement assay (competition with dBET6, BRD4BD2-eGFP reporter, Flip-In 293 cells). The settings on record: titrated in the presence of 100 nM dBET6, 5 h, Flip-In 293 cells expressing BRD4BD2-eGFP/mCherry. The class given is cell-based. The method, then: BRD4BD2 was subcloned into mammalian pcDNA5/FRT Vector (Ampicillin and Hygromycin B resistant) modified to contain MCS-eGFP-P2A-mCherry. Stable cell lines expressing eGFP-protein fusion and mCherry reporter were generated using Flip-In 293 system. Plasmid (0.3 μg) and pOG44 (4.7 μg) DNA were preincubated in 100 μL of Opti-MEM I (Gibco, Life Technologies™) media containing 0.05 mg/ml Lipofectamine 2000 (Invitrogen™) for 20 min and added to Flip-In 293 cells containing 1.9 ml of DMEM media (Gibco, Life Technologies™) per well in a 6-well plate format (Falcon, 353046). Cells were propagated after 48 h and transferred into a […] (Coming, 430165) in DMEM media containing 50 μg/ml of Hygromycin B (REF 10687010, Invitrogen™) as a selection marker. Following 2-3 passage cycles, FACS (FACSAria II, BD) was used to enrich for cells expressing eGFP and mCherry.
Cells were seeded at 30-50% confluency in either 24, 48 or 96 well plates (3524, 3548, 3596 respectively, Costar) a day before compound treatment. The inventive compounds were titrated in the presence of 100 nM dBET6 and then were incubated with cells for 5 h following trypsinization and resuspension in DMEM media, transferred into 96-well plates (353910, Falcon) and analyzed by flow cytometer (Guava® easyCyte™ HT, Millipore). Signal from at least 3000 events per well was acquired and the eGFP and mCherry florescence monitored. Data was analyzed using FlowJo® (FlowJo®, LCC). Forward and side scatter outliers, frequently associated with cell debris, were removed leaving >90% of total cells, followed by removal of eGFP and mCherry signal outliers, leaving 88-90% of total cells creating the set used for quantification. The eGFP protein abundance relative to mCherry was then quantified as a ten-fold amplified ratio for each individual cell using the formula: 10× eGFP/mCherry. The median of the ratio was then calculated per set, normalized to the median of the DMSO ratio. […]

For assay [1], the system named is other identified HDAC proteins. The experiment in a line: Quantitative proteomics of cellular protein abundance in Kelly cells: other identified HDAC proteins. The class given is cell-based, human. Particulars: 1 μM, 5 hours, compared to DMSO control. The method, then:
Lysis buffer (8 M Urea, 50 mM NaCl, 50 mM 4-(2hydroxyethyl)-1-piperazineethanesulfonic acid (EPPS) pH 8.5, protease and phosphatase inhibitors from Roche®) were added to the cell pellets and homogenized by 20 passes through a 21 gauge (1.25 in. long) needle to achieve a cell lysate with a protein concentration between 1-4 mg mL^−1. A micro-BCA assay (Pierce™) was used to determine the final protein concentration in the cell lysate. 200 μg of protein for each sample were reduced and alkylated as described in Donovan et al., Elife 7:e38430 (2018).
Proteins were precipitated using methanol/chloroform. Four volumes of methanol were added to the cell lysate, followed by one volume of chloroform, and finally three volumes of water. The mixture was vortexed and centrifuged to separate the chloroform phase from the aqueous phase. The precipitated protein was washed with three volumes of methanol, centrifuged and the resulting washed precipitated protein was allowed to air dry. The precipitated protein was resuspended in 4 M Urea, 50 mM HEPES pH 7.4, followed by dilution to 1 M urea with the addition of 200 mM EPPS, pH 8. Proteins were first digested with LysC (1:50; enzyme:protein) for 12 hours at room temperature. The LysC digestion was diluted to 0.5 M Urea with 200 mM EPPS pH 8 followed by digestion with trypsin (1:50; enzyme:protein) for 6 hours at 37° C. Tandem mass tag (TMT) reagents (Thermo Fisher Scientific) were dissolved in anhydrous acetonitrile (ACN) according to manufacturer's instructions.
Anhydrous ACN was added to each peptide sample to a final concentration of 30% v/v, and labeling was induced with the addition of TMT reagent to each sample at a ratio of 1:4 peptide:TMT label. […] The sample channels were combined at a 1:1:1:1:1:1:1:1:1:1:1 ratio, desalted using C18 solid phase extraction cartridges (Waters®) and analyzed by LC-MS for channel ratio comparison. Samples were then combined using the adjusted volumes determined in the channel ratio analysis and dried down in a speed vacuum. […]

Turning to `O=C(/C=C/c1ccc(CN(CCOCCOCCNc2cccc3c2C(=O)N(C2CCC(=O)NC2=O)C3=O)CCc2c[nH]c3ccccc23)cc1)NO` (stereo not drawn) [Compound 1, (E)-3-(4-(((2-(1H-indol-3-yl)ethyl)(2-(2-(2-((2-(2,6-dioxopiperidin-3-yl)-1,3-dioxoisoindolin-4-yl)amino)ethoxy)ethoxy)ethyl)amino)methyl)phenyl)-N-hydroxyacrylamide], on CRBN, the IC50 came to 11.7 µM. For the same compound, the “change of cellular protein levels of the other identified HDAC proteins (heat map FIG. 3)” value (“change” for short) in assay [1] was “did not affect”.

For the compound `O=C(/C=C/c1ccc(CN(CCOCCNc2cccc3c2C(=O)N(C2CCC(=O)NC2=O)C3=O)CCc2c[nH]c3ccccc23)cc1)NO` (stereo not drawn) [Compound 2, (E)-3-(4-(((2-(1H-indol-3-yl)ethyl)(2-(2-((2-(2,6-dioxopiperidin-3-yl)-1,3-dioxoisoindolin-4-yl)amino)ethoxy)ethyl)amino)methyl)phenyl)-N-hydroxyacrylamide], the IC50 at CRBN is 19.2 µM. Also, the “change” value in assay [1] was “did not affect”.

Regarding `O=C(/C=C/c1ccc(CN(CCCCCNc2cccc3c2C(=O)N(C2CCC(=O)NC2=O)C3=O)CCc2c[nH]c3ccccc23)cc1)NO` (stereo not drawn) [Compound 3, (E)-3-(4-(((2-(1H-indol-3-yl)ethyl)(5-((2-(2,6-dioxopiperidin-3-yl)-1,3-dioxoisoindolin-4-yl)amino)pentyl)amino)methyl)phenyl)-N-hydroxyacrylamide], the IC50 on CRBN came out at 10 µM. In addition, the “change” value in assay [1] is on record as “did not affect”.
